Consider six compounds from US9321756B2, “Azole compounds as PIM inhibitors” (priority 2011, dated 2016).

The target of assay [1] is full length recombinant Pim-1 (Homo sapiens (Human), UniProt P11309). Description: Pim enzyme assay (HTRF, phosphorylation of biotinylated-BAD (S112) peptide), Pim-1. It counts as biochemical. As to conditions: HTRF, 10-point curve, high dose 1 uM, 2 h at RT; read-out: Pim_1_IC50.
In assay [2] the target is full length recombinant Pim-2 (Homo sapiens (Human), UniProt Q9P1W9). Description: Pim enzyme assay (HTRF, phosphorylation of biotinylated-BAD (S112) peptide), Pim-2. It counts as biochemical. As to conditions: read-out: Pim2_IC50. (In TR-FRET formats the signal depends on donor and acceptor labels being close together.)
The subject of a further assay is KMS-12-BM myeloma cells. The assay is described as follows: Pim cell assay KMS12 (phospho-BAD and total BAD). In kind it is cell-based. Conditions: Homo sapiens, 2 h. The procedure:
The assay for determination of the antiproliferative activity of multiple Pim inhibitors in the KMS-12-BM myeloma cells measures levels of phospho-BAD and total BAD. It was conducted as follows: […] The cells were then incubated overnight at 37° C., 5% CO2. […] This dilution in DMSO was then diluted again into cell growth medium. […] The cell plates were then incubated with compound for 2 hours at 37° C., 5% CO2. After a two h incubation, the compound-containing medium was removed. […] The cell plates containing lysis buffer were then immediately stored at -70° C. These prepared lysates were then assayed for phospho and total BAD according to the manufacturer's protocols (Meso Scale Diagnostics, Cat#[…]-3 & #[…]-3). The plates were read on the MSD Sector Imager 6000, and results were calculated according to the assay protocols ((% Phosphoprotein=((2×Phospho signal)/(Phospho signal+Total signal))×100)).

[3] abbreviates: HTRF, 10-point curve, high dose 1 uM, 45 min at RT.

Where two headings read alike, the source gives them in different places.

Sequence of full length recombinant Pim-1 (P11309 whole entry): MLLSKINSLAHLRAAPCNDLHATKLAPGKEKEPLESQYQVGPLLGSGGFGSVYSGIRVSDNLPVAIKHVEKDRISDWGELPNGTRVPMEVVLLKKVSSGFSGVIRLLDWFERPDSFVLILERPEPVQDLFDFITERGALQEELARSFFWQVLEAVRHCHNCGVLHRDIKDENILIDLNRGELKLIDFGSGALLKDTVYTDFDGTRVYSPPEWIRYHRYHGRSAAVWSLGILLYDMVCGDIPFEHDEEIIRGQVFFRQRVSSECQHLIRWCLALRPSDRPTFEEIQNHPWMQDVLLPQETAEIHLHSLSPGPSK
Sequence of full length recombinant Pim-2 (Q9P1W9 whole entry): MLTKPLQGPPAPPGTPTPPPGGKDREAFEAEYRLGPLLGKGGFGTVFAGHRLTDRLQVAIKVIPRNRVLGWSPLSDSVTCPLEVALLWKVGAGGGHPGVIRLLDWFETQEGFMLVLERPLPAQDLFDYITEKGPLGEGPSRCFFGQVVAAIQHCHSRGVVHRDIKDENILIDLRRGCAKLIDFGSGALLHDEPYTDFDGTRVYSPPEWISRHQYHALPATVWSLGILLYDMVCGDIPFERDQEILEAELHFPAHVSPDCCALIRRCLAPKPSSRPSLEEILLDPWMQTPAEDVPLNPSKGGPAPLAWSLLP

With `CC(C)Nc1nnc(-c2ccc3[nH]cc(-c4ncc(C(N)=O)c(C5CC5)n4)c3c2)o1` [Example 281, 4-cyclopropyl-2-(5-(5-((1-methylethyl)amino)-1,3,4-oxadiazol-2-yl)-1H-indol-3-yl)-5-pyrimidinecarboxamide], the IC50 came to 1.19 nM in assay [1], 2.15 nM in assay [2] (setting [3]) and 1.28 µM in the assay on KMS-12-BM myeloma cells (read-out: KMS12_IC50).

With `CC(C)Nc1nccc(-c2c[nH]c3ccc(-c4nnc(NC(C)C)o4)cc23)n1` [Example 287, N-isopropyl-5-(3-(2-(isopropylamino)pyrimidin-4-yl)-1H-indol-5-yl)-1,3,4-oxadiazol-2-amine], the IC50 is 4.15 nM in assay [1], 11.1 nM in assay [2] and 1.56 µM in the assay on KMS-12-BM myeloma cells (read-out: KMS12_IC50 (uM)).

Consider `CC(C)Nc1nc(-c2c[nH]c3ccc(-c4nnc(NC(C)C)o4)cc23)cc(=O)[nH]1` [Example 288, 2-(isopropylamino)-6-(5-(5-(isopropylamino)-1,3,4-oxadiazol-2-yl)-1H-indol-3-yl)pyrimidin-4(3H)-one], for which the IC50 in assay [1] came out at 2.44 nM; in assay [2] (setting [3]), 14.3 nM; in the assay with KMS-12-BM myeloma cells (read-out: KMS12_IC50) it was 4.2 µM.

Turning to `CC(C)Nc1nnc(-c2ccc3[nH]cc(NC(=O)C4CC4)c3c2)o1` [Example 291, N-(5-(5-(isopropylamino)-1,3,4-oxadiazol-2-yl)-1H-indol-3-yl)cyclopropanecarboxamide], the values for the IC50 (in assay [1]; in assay [2] (setting [3]); in the assay on KMS-12-BM myeloma cells (read-out: KMS12_IC50)) were 53.1 nM, 25.6 nM and 1.44 µM, respectively.

`CC(C)Nc1nnc(-c2ccc3[nH]cc(-c4cc(=O)[nH]c(C5CC5)n4)c3c2)o1` [Example 300, 2-cyclopropyl-6-(5-(5-((1-methylethyl)amino)-1,3,4-oxadiazol-2-yl)-1H-indol-3-yl)-4(3H)-pyrimidinone]: the IC50 in assay [1] amounted to 1.2 nM; in assay [2] (setting [3]), 2.24 nM; with KMS-12-BM myeloma cells (read-out: KMS12_IC50) it was 1.44 µM.

Consider `CC(C)Nc1nnc(-c2ccc3[nH]cc(-c4ccnc(C5CC5)n4)c3c2)o1` [Example 301, 5-(3-(2-cyclopropyl-4-pyrimidinyl)-1H-indol-5-yl)-N-(1-methylethyl)-1,3,4-oxadiazol-2-amine], for which the IC50 is 2.54 nM in assay [1], 4.65 nM in assay [2] (setting [3]) and 0.945 µM in the assay on KMS-12-BM myeloma cells (read-out: KMS12_IC50).
